SMILES strings stand for the structures.

Holding throughout (type): functional
Test [1] is filed under the species Cavia porcellus. Nature of the test: Inhibition of electrically evoked twitches in guinea pig ileum relative to morphine.
The species named for test [2] is Mus musculus. The experiment in a line: Analgesic activity in mice by using hot plate method.
For test [3], the species on record is Cavia porcellus. The experiment in a line: Inhibition of twitches in guinea pig ileum.

For `C[C@H](N)C(=O)N[C@H](C)C(=O)N[C@@H](Cc1ccccc1)C(=O)NCC(=O)N[C@@H](Cc1ccc(O)cc1)C(=O)N1CCC[C@H]1C(=O)N[C@@H](CO)C(N)=O`, the Relative potency in test [1] is on record as 0.0017. Also, the ED50 in test [2] is 6.1e-05 M/kg.
The corresponding values for `CC(=O)N[C@@H](Cc1ccc(O)cc1)C(=O)N[C@H](C)C(=O)N[C@@H](Cc1ccccc1)C(=O)NCC(=O)N[C@@H](Cc1ccc(O)cc1)C(=O)N1CCC[C@H]1C(=O)N[C@@H](CO)C(N)=O` are 0.0044 and above 0.001 M/kg.
`C[C@@H](NC(=O)[C@@H](N)Cc1ccc(O)cc1)C(=O)N[C@@H](Cc1ccccc1)C(=O)NCC(=O)N[C@@H](Cc1ccc(O)cc1)C(=O)N1CCC[C@H]1C(=O)N[C@@H](CO)C(N)=O` [DERMORPHIN] displayed a Relative potency in test [1] of 1440. This molecule also displayed an IC50 in test [3] of 0.052 nM. Also, in test [2], the ED50 worked out at 9.5e-07 M/kg.
As to `C[C@@H](NC(=O)[C@H](N)Cc1ccccc1)C(=O)N[C@@H](Cc1ccccc1)C(=O)NCC(=O)N[C@@H](Cc1ccc(O)cc1)C(=O)N1CCC[C@H]1C(=O)N[C@@H](CO)C(N)=O`, in test [1], the Relative potency is reported as 0.0042. In addition, the ED50 in test [2] was above 0.001 M/kg.
The matching figures for `COc1ccc(C[C@H](N)C(=O)N[C@H](C)C(=O)N[C@@H](Cc2ccccc2)C(=O)NCC(=O)N[C@@H](Cc2ccc(O)cc2)C(=O)N2CCC[C@H]2C(=O)N[C@@H](CO)C(N)=O)cc1`: 40.5 and 6e-05 M/kg.
Take `CSCC[C@H](NC(=O)[C@H](Cc1ccccc1)NC(=O)CNC(=O)[C@@H](C)NC(=O)[C@@H](N)Cc1ccc(O)cc1)C(N)=O`: the Relative potency in test [1] was determined as 30. In test [3], this molecule returned an IC50 of 2.5 nM.
The molecule `C[C@@H](NC(=O)[C@@H](N)Cc1ccccc1)C(=O)N[C@@H](Cc1ccccc1)C(=O)NCC(=O)N[C@@H](Cc1ccc(O)cc1)C(=O)N1CCC[C@H]1C(=O)N[C@@H](CO)C(N)=O` had a Relative potency in test [1] of 0.026. This molecule came in with an ED50 in test [2] of 1.55e-05 M/kg.
Turning to `CN1CC[C@]23c4c5ccc(O)c4O[C@H]2[C@@H](O)C=C[C@H]3[C@H]1C5` [MORPHINE], in test [2], the ED50 amounted to 1.7e-06 M/kg.

(Values after ChEMBL document CHEMBL1122436, “Structure-activity studies of dermorphin. Synthesis and some pharmacological data of dermorphin and its 1-substituted analogues” (J Med Chem, 1983).)
